For 13 molecules, IC50 results are on record in patent publication US20240109918A1, “HETEROCYCLIC COMPOUNDS AND USES THEREOF” (Kumquat Biosciences Inc., priority 2022, published 2024).

The target in experiment [1] is T1, KRASwt (Homo sapiens, UniProt P01116).
T1 construct: made in house; host or cells: E. coli BL21 (DE3)
The experiment is described as follows: Bio-Biochem-PPI-HTRF Ras-SOS1 interaction assay (KRAS wt). The following applies: 5 nM. Format: biochemical. An outline of the steps: (§1)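 HTRF readout (ex 337 nm; em 620 and 665 nm) after ≥~10 min incubation; IC50 fitted from 665/620 ratio. GST-K-Ras wt or G12D plus anti-GST-Eu(K), His-hSOS1 plus anti-6His-XL665; duplicate dilutions, 10 μM top.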

The target in experiment [2] is T2, KRASG12D (Homo sapiens, UniProt P01116, G12D).
T2 construct: made in house; host or cells: E. coli BL21 (DE3)
T2 sequence (P01116 1-188 isoform P01116-2 G12D): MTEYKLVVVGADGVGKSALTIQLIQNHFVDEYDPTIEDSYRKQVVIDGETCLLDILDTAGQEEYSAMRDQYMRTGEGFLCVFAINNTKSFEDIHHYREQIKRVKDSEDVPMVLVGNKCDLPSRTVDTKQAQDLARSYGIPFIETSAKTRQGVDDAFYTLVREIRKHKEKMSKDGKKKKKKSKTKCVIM
As to the kind of experiment: Bio-Biochem-PPI-HTRF Ras-SOS1 interaction assay (KRAS G12D). Format: biochemical. The following applies: 5 nM. An outline of the steps: as §1
On the technique in general: In TR-FRET formats the signal depends on donor and acceptor labels being close together.

Usually IC50 stands for the point on the concentration scale where inhibition reaches its midpoint. Read a high IC50 as a need for much substance.

T1 sequence (P01116 1-188 isoform P01116-2): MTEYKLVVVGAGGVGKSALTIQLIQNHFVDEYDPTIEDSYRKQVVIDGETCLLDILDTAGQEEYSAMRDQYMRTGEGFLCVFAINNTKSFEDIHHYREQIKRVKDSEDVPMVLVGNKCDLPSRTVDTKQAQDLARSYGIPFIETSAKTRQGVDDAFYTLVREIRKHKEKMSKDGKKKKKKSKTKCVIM

Take `N#Cc1c(N)sc2c(F)ccc(-c3c(Cl)cc4c(N5CCCCC6(CN(C(=O)C7CC8(C7)CC8(F)F)C6)C5)nc(OC[C@@]56CCCN5C[C@H](F)C6)nc4c3F)c12` (stereo partly drawn) [compound 309, 2-amino-4-(6-chloro-4-(2-(1,1-difluorospiro[2.3]hexane-5-carbonyl)-2,6-diazaspiro[3.6]decan-6-yl)-8-fluoro-2-(((2R,7aS)-2-fluorotetrahydro-1H-pyrrolizin-7a(5H)-yl)methoxy)quinazolin-7-yl)-7-fluorobenzo[b]thiophene-3-carbonitrile]: the IC50 in experiment [1] and in experiment [2] was less than 5 µM in each case.

For `N#Cc1c(N)sc2c(F)ccc(-c3c(Cl)cc4c(N5CCCCC6(CN(C(=O)C7(C#N)CC7)C6)C5)nc(OC[C@@]56CCCN5C[C@H](F)C6)nc4c3F)c12` [compound 242, 2-amino-4-(6-chloro-4-(2-(1-cyanocyclopropane-1-carbonyl)-2,6-diazaspiro[3.6]decan-6-yl)-8-fluoro-2-(((2R,7aS)-2-fluorotetrahydro-1H-pyrrolizin-7a(5H)-yl)methoxy)quinazolin-7-yl)-7-fluorobenzo[b]thiophene-3-carbonitrile], the IC50 in experiment [1] and in experiment [2] was less than 5 µM each time.

As for `Nc1nc2c(-c3c(Cl)cc4c(N5CCNC6(CNC6)C5)nc(OC[C@@]56CCCN5C[C@H](F)C6)nc4c3F)ccc(F)c2s1` [compound 116, 4-(6-chloro-8-fluoro-2-(((2R,7aS)-2-fluorotetrahydro-1H-pyrrolizin-7a(5H)-yl)methoxy)-4-(2,5,8-triazaspiro[3.5]nonan-8-yl)quinazolin-7-yl)-7-fluorobenzo[d]thiazol-2-amine], the IC50 in experiment [1] and in experiment [2] was less than 5 µM throughout.

Take `N#Cc1c(N)sc2c(F)ccc(-c3c(Cl)cc4c(N5CCCC6(CN(C=O)C6)C5)nc(OC[C@@]56CCCN5C[C@H](F)C6)nc4c3F)c12` [compound 173, 2-amino-4-(6-chloro-8-fluoro-2-(((2R,7aS)-2-fluorotetrahydro-1H-pyrrolizin-7a(5H)-yl)methoxy)-4-(2-formyl-2,6-diazaspiro[3.5]nonan-6-yl)quinazolin-7-yl)-7-fluorobenzo[b]thiophene-3-carbonitrile]: the IC50 in experiment [1] and in experiment [2] was less than 5 µM each time.

In the case of `N#Cc1c(N)sc2c(F)ccc(-c3c(Cl)cc4c(N5CCC6(CCN(C(=O)C7CC7(F)F)C6)CC5)nc(OC[C@@]56CCCN5C[C@H](F)C6)nc4c3F)c12` (stereo partly drawn) [compound 349, 2-amino-4-(6-chloro-4-(2-(2,2-difluorocyclopropane-1-carbonyl)-2,8-diazaspiro[4.5]decan-8-yl)-8-fluoro-2-(((2R,7aS)-2-fluorotetrahydro-1H-pyrrolizin-7a(5H)-yl)methoxy)quinazolin-7-yl)-7-fluorobenzo[b]thiophene-3-carbonitrile], the IC50 in experiment [1] and in experiment [2] was less than 5 µM each time.

On to `Cc1ccnc(C(C)C)c1-n1c(=O)nc(N2CCOC3(CNC3)C2)c2cc(F)c(-c3c(O)cccc3F)nc21` [compound 112, 6-fluoro-7-(2-fluoro-6-hydroxyphenyl)-1-(2-isopropyl-4-methylpyridin-3-yl)-4-(5-oxa-2,8-diazaspiro[3.5]nonan-8-yl)pyrido[2,3-d]pyrimidin-2(1H)-one], for which the IC50 in experiment [1] and in experiment [2] was no less than 5 µM in each case.

In the case of `N#Cc1c(N)sc2c(F)ccc(-c3c(Cl)cc4c(N5CCCCC6(CN(C(=O)C7CCOCC7)C6)C5)nc(OC[C@@]56CCCN5C[C@H](F)C6)nc4c3F)c12` [compound 300, 2-amino-4-(6-chloro-8-fluoro-2-(((2R,7aS)-2-fluorotetrahydro-1H-pyrrolizin-7a(5H)-yl)methoxy)-4-(2-(tetrahydro-2H-pyran-4-carbonyl)-2,6-diazaspiro[3.6]decan-6-yl)quinazolin-7-yl)-7-fluorobenzo[b]thiophene-3-carbonitrile], the IC50 in experiment [1] and in experiment [2] was less than 5 µM throughout.

With `N#Cc1c(N)sc2c(F)ccc(-c3c(Cl)cc4c(N5CC(F)(F)C6(CN(C(=O)C(F)F)C6)C5)nc(OC[C@@]56CCCN5C[C@H](F)C6)nc4c3F)c12` [compound 330, 2-amino-4-(6-chloro-4-(2-(2,2-difluoroacetyl)-8,8-difluoro-2,6-diazaspiro [3.4]octan-6-yl)-8-fluoro-2-(((2R,7aS)-2-fluorotetrahydro-1H-pyrrolizin-7a(5H)-yl)methoxy)quinazolin-7-yl)-7-fluorobenzo[b]thiophene-3-carbonitrile], the IC50 in experiment [1] and in experiment [2] was less than 5 µM in each case.

Turning to `N#Cc1c(N)sc2c(F)ccc(-c3c(Cl)cc4c(N5CCC(CO)CC6(CNC6)C5)nc(OC[C@@]56CCCN5C[C@H](F)C6)nc4c3F)c12` (stereo partly drawn) [compound 214, 2-amino-4-(6-chloro-8-fluoro-2-(((2R,7aS)-2-fluorotetrahydro-1H-pyrrolizin-7a(5H)-yl)methoxy)-4-(9-(hydroxymethyl)-2,6-diazaspiro[3.6]decan-6-yl)quinazolin-7-yl)-7-fluorobenzo[b]thiophene-3-carbonitrile], the IC50 in experiment [1] and in experiment [2] was less than 5 µM throughout.

For `N#Cc1c(N)sc2c(F)ccc(-c3c(Cl)cc4c(N5CCCCC6(CN(C(=O)c7ccnn7C(F)(F)F)C6)C5)nc(OC[C@@]56CCCN5C[C@H](F)C6)nc4c3F)c12` [compound 323, 2-amino-4-(6-chloro-8-fluoro-2-(((2R,7aS)-2-fluorotetrahydro-1H-pyrrolizin-7a(5H)-yl)methoxy)-4-(2-(1-(trifluoromethyl)-1H-pyrazole-5-carbonyl)-2,6-diazaspiro[3.6]decan-6-yl)quinazolin-7-yl)-7-fluorobenzo[b]thiophene-3-carbonitrile], the IC50 in experiment [1] and in experiment [2] was less than 5 µM throughout.

For `CN(C)C(=O)N1CC2(CCCN(c3nc(OC[C@@]45CCCN4C[C@H](F)C5)nc4c(F)c(-c5ccc(F)c6sc(N)c(C#N)c56)c(Cl)cc34)C2)C1` [compound 119, 6-(7-(2-amino-3-cyano-7-fluorobenzo[b]thiophen-4-yl)-6-chloro-8-fluoro-2-(((2R,7aS)-2-fluorotetrahydro-1H-pyrrolizin-7a(5H)-yl)methoxy)quinazolin-4-yl)-N,N-dimethyl-2,6-diazaspiro[3.5]nonane-2-carboxamide], the IC50 in experiment [1] and in experiment [2] was less than 5 µM in each case.

Take `COc1cc(C(=O)N2CC3(CCCCN(c4nc(OC[C@@]56CCCN5C[C@H](F)C6)nc5c(F)c(-c6ccc(F)c7sc(N)c(C#N)c67)c(Cl)cc45)C3)C2)n(C)n1` [compound 258, 2-amino-4-(6-chloro-8-fluoro-2-(((2R,7aS)-2-fluorotetrahydro-1H-pyrrolizin-7a(5H)-yl)methoxy)-4-(2-(3-methoxy-1-methyl-1H-pyrazole-5-carbonyl)-2,6-diazaspiro[3.6]decan-6-yl)quinazolin-7-yl)-7-fluorobenzo[b]thiophene-3-carbonitrile]: the IC50 in experiment [1] and in experiment [2] was less than 5 µM each time.

In the case of `CN(C)C/C=C/C(=O)N1CC2(CCCN(c3nc(OC[C@@]45CCCN4C[C@H](F)C5)nc4c(F)c(-c5ccc(F)c6sc(N)c(C#N)c56)c(Cl)cc34)C2)C1` [compound 189, 2-amino-4-(6-chloro-4-(2-((E)-4-(dimethylamino)but-2-enoyl)-2,6-diazaspiro[3.5]nonan-6-yl)-8-fluoro-2-(((2R,7aS)-2-fluorotetrahydro-1H-pyrrolizin-7a(5H)-yl)methoxy)quinazolin-7-yl)-7-fluorobenzo[b]thiophene-3-carbonitrile], the IC50 in experiment [1] and in experiment [2] was less than 5 µM in each case.
